Results from the NIST ThermoML archive (doi:10.1016/j.jct.2008.10.016).

Columns and labels:
[1] = Drop volume
[2] = xn = mol fraction of the nth substance listed; conditions: Drop volume

CCCCCl [1-chlorobutane]
[1]
Conditions | surface tension liquid-gas [mN/m]
283.15 K | 24.73
288.15 K | 24.24
293.15 K | 23.64
298.15 K | 23.29
303.15 K | 22.62
308.15 K | 22.03
313.15 K | 21.53

CCCCCl [1-chlorobutane] + CCCCCC
surface tension liquid-gas [mN/m], [2]
Conditions | 283.15 K | 288.15 K | 293.15 K | 298.15 K | 303.15 K | 308.15 K | 313.15 K
x2 = 0.0493 | 24.17 | 23.68 | 23.11 | 22.74 | 22.08 | 21.5 | 21.04
x2 = 0.1016 | 23.7 | 23.21 | 22.63 | 22.27 | 21.62 | 21.03 | 20.59
x2 = 0.2048 | 22.96 | 22.46 | 21.88 | 21.52 | 20.89 | 20.28 | 19.84
x2 = 0.3038 | 22.32 | 21.83 | 21.28 | 20.93 | 20.32 | 19.69 | 19.28
x2 = 0.3967 | 21.82 | 21.32 | 20.79 | 20.43 | 19.83 | 19.18 | 18.79
x2 = 0.5015 | 21.29 | 20.78 | 20.25 | 19.89 | 19.31 | 18.64 | 18.27
x2 = 0.6086 | 20.85 | 20.31 | 19.77 | 19.39 | 18.82 | 18.14 | 17.81
x2 = 0.7097 | 20.48 | 19.93 | 19.4 | 19 | 18.46 | 17.77 | 17.47
x2 = 0.804 | 20.19 | 19.63 | 19.1 | 18.71 | 18.18 | 17.46 | 17.18
x2 = 0.9021 | 19.91 | 19.35 | 18.84 | 18.43 | 17.91 | 17.16 | 16.89
x2 = 0.9391 | 19.81 | 19.24 | 18.73 | 18.31 | 17.79 | 17.02 | 16.75

CCCCCCl [1-chloropentane]
[1]
Conditions | surface tension liquid-gas [mN/m]
283.15 K | 26.02
288.15 K | 25.58
293.15 K | 25.02
298.15 K | 24.46
303.15 K | 24.02
308.15 K | 23.51
313.15 K | 23.02

CCCCCCl [1-chloropentane] + CCCCCC
surface tension liquid-gas [mN/m], [2]
Conditions | 283.15 K | 288.15 K | 293.15 K | 298.15 K | 303.15 K | 308.15 K | 313.15 K
x2 = 0.0482 | 25.44 | 25.02 | 24.53 | 24.02 | 23.59 | 23.11 | 22.64
x2 = 0.1185 | 24.7 | 24.3 | 23.83 | 23.35 | 22.95 | 22.45 | 22.02
x2 = 0.1991 | 24 | 23.59 | 23.09 | 22.64 | 22.24 | 21.71 | 21.3
x2 = 0.308 | 23.2 | 22.76 | 22.25 | 21.78 | 21.37 | 20.8 | 20.41
x2 = 0.3925 | 22.62 | 22.17 | 21.67 | 21.2 | 20.75 | 20.16 | 19.8
x2 = 0.5087 | 21.91 | 21.44 | 20.94 | 20.47 | 20.03 | 19.4 | 19.05
x2 = 0.5953 | 21.41 | 20.94 | 20.47 | 20.02 | 19.56 | 18.91 | 18.56
x2 = 0.7076 | 20.85 | 20.37 | 19.9 | 19.45 | 18.98 | 18.3 | 18
x2 = 0.7889 | 20.47 | 19.98 | 19.5 | 19.04 | 18.56 | 17.88 | 17.58
x2 = 0.9069 | 19.97 | 19.44 | 18.94 | 18.5 | 17.99 | 17.25 | 16.99
x2 = 0.9474 | 19.81 | 19.24 | 18.74 | 18.29 | 17.79 | 17.05 | 16.77

CCCCCC [hexane]
[1]
Conditions | surface tension liquid-gas [mN/m]
283.15 K | 19.63
288.15 K | 19.04
293.15 K | 18.52
298.15 K | 18.06
303.15 K | 17.53
308.15 K | 16.74
313.15 K | 16.47
